Values of other authors in patent US20160081915A1, “TRANSDERMAL FORMULATIONS OF FLUTICASONE” (STRATEGIC SCIENCE & TECHNOLOGIES, LLC, priority 2013, published 2016).

Conditions: oral; extensive first-pass metabolism in the liver

For C[C@@H]1C[C@H]2[C@@H]3C[C@H](F)C4=CC(=O)C=C[C@]4(C)[C@@]3(F)[C@@H](O)C[C@]2(C)[C@@]1(O)C(=O)SCF [fluticasone], the “half-life when delivered orally” value is given as “about 7.8 hours”.
